Assay results taken from US11154482B2, “Peptide, composition and method for anti-hair graying” (Renorigin Innovation Institute Co., Ltd., priority 2020, dated 2021).

Experiments:
Bleaching of hair = conditions: 7.5% hydrogen peroxide, 400 μg/ml peptide, 14 days
Protocol: FIG. 4 provides photographs of the hairs decolored with 7.5% hydrogen peroxide. Top panel, 7.5% hydrogen peroxide only; bottom panel, 7.5% hydrogen peroxide and incubated with 400 μg/ml peptide of the invention.
Hairs were treated with 7.5% hydrogen peroxide with or without peptide of SEQ ID NO: 1 for 14 days.

DPPH assay = assay type: physicochemical; conditions: 50 μg/ml peptide, 0.2 mM DPPH, 16 h in the dark at room temperature, absorbance 515 nm
Protocol: 50 μg/ml peptide of SEQ ID NO: 1 was treated with 0.2 mM DPPH for 16 h. Data are represented as the means±SD from three independent experiments. ***p<0.001.
50 μg/ml peptide of SEQ ID NO: 1 was added in 96-well plates and incubated with 0.2 mM DPPH. Plates incubated in the dark for 16 hours at room temperature. After 16 h, the absorbance was measured at 515 nm using an automated plat reader (molecular devices).

[1] = tested on: B16F10 murine melanoma cells; assay: Protection against hydrogen peroxide-induced oxidative stress injury (MTT cell viability assay); assay type: cell-based; conditions: 30 μM hydrogen peroxide for 24 h, then 50 μg/ml peptide and hydrogen peroxide for 48 h
Protocol: (§1) B16F10 murine melanoma cells (American Type Culture Collection, Manassas, Va., USA) were cultured in Dulbecco's modified Eagle's medium (DMEM) (Thermo Scientific, Barrington, Ill., USA) with 10% fetal bovine serum (FBS) (Gibco, Grand Island, N.Y., USA) and penicillin/streptomycin (100 IU/[…]) in a humidified atmosphere containing 5% CO2 at 37° C.
(§2) Cells (1×10^3) were seeded in 96-well plates. After treatment with hydrogen peroxide and peptide of SEQ ID NO: 1, MTT was added to a final concentration of 0.5 mg/ml and incubated for 4 h at 37° C. to allow MTT reduction. The formazan crystals were then dissolved in 10% sodium dodecyl sulfate (SDS) containing 0.01 N HCl and absorbance was measured at the dual wavelengths of 570 and 630 nm with a spectrophotometer (VersaMax; Molecular Devices, Silicon Valley, Calif., USA).
Cells were exposed to 30 μM hydrogen peroxide for 24 h and then treated with 50 μg/ml peptide of SEQ ID NO: 1 and hydrogen peroxide for 48 h.

[2] = tested on: B16F10 murine melanoma cells; assay: Prevention of hydrogen peroxide-induced oxidative stress injury (MTT cell viability assay); assay type: cell-based; conditions: 50 μg/ml peptide for 24 h, then 0.5 mM hydrogen peroxide for 2 h
Protocol: as §1, §2
Cells were treated with 50 μg/ml peptide of SEQ ID NO: 1 for 24 h and then exposed to 0.5 mM hydrogen peroxide for 2 h.

FKCRRWQWRMKKL [Peptide of SEQ ID NO: 1]
hair color after hydrogen peroxide immersion (Bleaching of hair): hair still had bright yellow
DPPH radical scavenging capacity (DPPH assay): significantly decreased DPPH radical scavenging capacity
hydrogen peroxide-induced stress injury (MTT assay), protection [1]: attenuates hydrogen peroxide-induced stress injury
hydrogen peroxide-induced stress injury (MTT assay), prevention [2]: attenuates hydrogen peroxide-induced stress injury
